Broadly, the EC50 is the concentration at which the effect is half-maximal.

This experiment has as its system rat osteocalcin promoter. The experiment is described as follows: OCN (osteocalcin) promoter assay in RG-15 (ROS 17/2.8) cells. Format: cell-based. As to conditions: Rattus norvegicus. Here is the method:
4. The OCN Promoter test is described in the “Assay” section of the Description, infra.
3. The OCN (Osteocalcin) Promoter Assay
The OCN Promoter Assay is an indicator and marker for osteoporosis. Desired assay results are EC50 less than or equal to 325 nM. Preferred assay results are less than 50 nM.
(3) Materials and Method for The OCN Promoter Assay:
The activation of osteocalcin by VDR ligands was evaluated in a rat osteoblast-like cell line RG-15 (ROS 17/2.8) stably expressing rat osteocalcin promoter fused with luciferase reporter gene. The stable cell lines were established as reported before (Activation of Osteocalcin Transcription involves interaction of protein kinase A- and Protein kinase C-dependent pathways. Boguslawski, G., Hale, L. V., Yu, X.-P., Miles, R. R., Onyia, J. E., Santerre R. F., Chandrasekhar, S. J Biol. Chem. 275, 999-1006, 2000). Confluent RG-15 cells maintained in DMEM/F-12 medium (3:1) containing 5% FBS, 300 µg/ml G418 and at 37° C. under 5% CO2/95% air atmosphere were trypsinized (0.25% trypsin) and plated into white opaque 96-well cell culture plates (25000 cells/well). After 24 hr, cells (in DMEM/F-12 medium+2% FBS) were treated with various concentrations of compounds, dissolved in DMSO. The final DMSO concentration remained at 0.01% (v/v). After 48 hr treatment, the medium was removed, cells were lysed with 50 µl of lysis buffer (From Luciferase reporter assay system, Roche Diagnostics, Indianapolis, Ind.) and assayed for luciferase activity using the Luciferase Reporter Gene Assay kit from Boehringer Mannheim as per manufacturer's specifications.
Regarding `CCc1cc(C(CC)(CC)c2ccc(S(=O)(=O)NCC(=O)OC)s2)ccc1OCC(O)C(C)(C)C` (stereo not drawn) [Ex. 154], the EC50 is 20.5 nM.
For the compound `CCCc1cc(C(CC)(CC)c2ccc(S(=O)(=O)NCC(=O)O)s2)ccc1OCC(O)C(C)(C)C` (stereo not drawn) [Ex. 157], the EC50 was 7.65 nM.
As for `CCC(CC)(c1ccc(OCC(=O)C(C)(C)C)c(C)c1)c1cc(C)c(S(=O)(=O)/N=C/N(C)C)s1` [Ex. 161], the 50% effective concentration (EC50) was 77 nM.
On to `CCC(=O)NS(=O)(=O)c1sc(C(CC)(CC)c2ccc(OCC(=O)C(C)(C)C)c(C)c2)cc1C` [Ex. 163, 5-{1-[4-(3,3-dimethyl-2-oxo-butoxy)-3-methyl-phenyl]-1-ethyl-propyl}-3-methyl-thiophene-2-sulfonic acid propionyl-amide], for which the EC50 worked out at 106 nM.
On to `CCC(CC)(c1ccc(OCC(=O)C(C)(C)C)c(C)c1)c1cc(C)c(S(=O)(=O)NC(=O)C(C)C)s1` [Ex. 164, 5-{1-[4-(3,3-Dimethyl-2-oxo-butoxy)-3-methyl-phenyl]-1-ethyl-propyl}-3-methyl-thiophene-2-sulfonic acid isobutyryl-amide], for which the EC50 is 150 nM.
`CCC(CC)(c1ccc(OCC(=O)C(C)(C)C)c(C)c1)c1cc(C)c(S(=O)(=O)NC(=O)C2CC2)s1` [Ex. 165, 5-{1-[4-(3,3-Dimethyl-2-oxo-butoxy)-3-methyl-phenyl]-1-ethyl-propyl}-3-methyl-thiophene-2-sulfonic acid cyclopropanecarbonyl-amide]: the half-maximal effective concentration (EC50) was found to be 138 nM.
For `CCC(CC)(c1ccc(OCC(=O)C(C)(C)C)c(C)c1)c1cc(C)c(S(=O)(=O)NC(=O)COC)s1` [Ex. 166, 5-{1-[4-(3,3-Dimethyl-2-oxo-butoxy)-3-methyl-phenyl]-1-ethyl-propyl}-3-methyl-thiophene-2-sulfonic acid (2-methoxy-acetyl)-amide] the value was 151 nM; for `CCC(CC)(c1ccc(OCC(O)C(C)(C)C)c(C)c1)c1cc(C)c(-c2n[nH]c(=S)o2)s1` (stereo not drawn) [Ex. 172, 5-(5-{1-Ethyl-1-[4-(2-hydroxy-3,3-dimethyl-butoxy)-3-methyl-phenyl]-propyl}-3-methyl-thiophen-2-yl)-3H-[1,3,4]oxadiazole-2-thione], 17.2 nM.
For `CCC(CC)(c1ccc(CCC(O)C(C)(C)C)c(C)c1)c1cc(C)c(C(=O)OC)s1` (stereo not drawn) [Ex. 174, 5-{1-Ethyl-1-[4-(3-hydroxy-4,4-dimethyl-pentyl)-3-methyl-phenyl]-propyl}-3-methyl-thiophene-2-carboxylic acid methyl ester], the 50% effective concentration (EC50) worked out at 172 nM.
For `CCC(CC)(c1ccc(CCC(O)C(C)(C)C)c(C)c1)c1cc(C)c(C(=O)O)s1` (stereo not drawn) [Ex. 175, 5-{1-Ethyl-1-[4-(3-hydroxy-4,4-dimethyl-pentyl)-3-methyl-phenyl]-propyl}-3-methyl-thiophene-2-carboxylic acid] the value was 127 nM.
On to `CCC(CC)(c1ccc(CCC(=O)C(C)(C)C)c(C)c1)c1cc(C)c(S(=O)(=O)NCC(=O)O)s1` [Ex. 182], for which the EC50 amounted to 231 nM.
On to `CCOC(=O)CSCc1sc(C(CC)(CC)c2ccc(OCC(=O)C(C)(C)C)c(C)c2)cc1C` [Ex. 183, (5-{1-[4-(3,3-Dimethyl-2-oxo-butoxy)-3-methyl-phenyl]-1-ethyl-propyl}-3-methyl-thiophen-2-ylmethylsulfanyl)-acetic acid ethyl ester], for which the EC50 was 38.6 nM.

Source of the values: patent US7601850B2, “Phenyl-thiophene type vitamin D receptor modulators” (Eli Lilly and Company, priority 2002, dated 2009).
